{"source": "patent US20260248771A1", "about": "“VALBENAZINE, A VMAT2 INHIBITOR, AS A FREE BASE A TOSYLATE OR DITOSYLATE SALT, FOR USE IN THE TREATMENT OF CHOREA ASSOCIATED WITH HUNTINGTON'S DISEASE” (Neurocrine Biosciences, Inc., priority 2022, published 2026)", "assay_type_in_all_cases": "in vivo, human", "key": {"subjects with HD [1]": {"test_system": "subjects with HD", "assay": "Phase 3 study: UHDRS total motor score (TMS)", "conditions": "MMRM model; valbenazine vs placebo", "from_the_text": "As used herein, “Unified Huntington Disease Rating Scale” or “UHDRS” is the standard clinical assessment tool in Huntington disease. The UHDRS is divided into four domains: motor performance, cognitive function, behavioral abnormalities, and functional abilities. The motor section consists of 31 items assessing oculomotor, bradykinesia/rigidity, dystonia, chorea, and gait/balance. The items are rated from zero to four, with zero indicating normal findings and four indicating severe abnormalities. The range of the Total Motor Score (TMS) is 0 to 124, with higher scores indicating more severe motor impairment. The cognitive component includes the verbal fluency test, the symbol digit modalities test, and the Stroop test (color naming, word reading, and interference). Lower scores indicate worse cognitive performance. The behavioral assessment measures the frequency and severity of 11 items, which are rated from zero (almost never/absent) to four (almost always/severe). The items assess depression, anxiety, aggression, psychosis, and other behavioral abnormalities. The behavioral score ranges from 0 to 88, with higher scores indicating more severe psychiatric abnormalities. The functional domain comprises three components, namely the total functional capacity (TFC), the functional assessment scale (FAS), and the independence scale (IS). […]"}, "subjects with HD [2]": {"test_system": "subjects with HD", "assay": "Phase 3 study: Patient Global Impression of Change (PGI-C) response status", "from_the_text": "In certain embodiments, the method is effective to result in an improvement in Patient Global Impression of Change (PGI-C) response status, wherein subjects whose score is either a 1 (“very much improved”) or a 2 (“much improved”) in PGI-C were classified as responders. In certain embodiments, at least about 20%, such as at least about 25%, at least about 30%, at least about 35%, at least about 40%, at least about 50%, at least about 55%, were classified as responders. In certain embodiments, at least about 25% of subjects were classified as responders after 12 weeks of treatment.\n(§1) A Phase 3, randomized, double-blind, placebo-controlled study to evaluate the efficacy, safety, and tolerability of once-daily valbenazine in subjects with HD was conducted. The study included a 4-week screening period, an 8-week dose-adjustment period, a 4-week maintenance period, and a final study visit 2 weeks following the final dose of study drug.\nSecondary endpoints included: • Clinical Global Impression of Change (CGI-C) response status ([…] of “very much improved” or “much improved”) at Week 12; • Patient Global Impression of Change (PGI-C) response status ([…] of “very much improved” or “much improved”) at Week 12; • Change from baseline to Week 12 in the Quality of Life in Neurological Disorders Upper Extremity Function; and • Change from baseline to Week 12 in the Neuro-QoL Lower Extremity Function.\nExploratory endpoints included: • Wearable movement sensors (in select sites; optional participation) using MC10 Inc., BIOSTAMP® NPOINT® system • Huntington Disease Health Index • Changes from the screening period baseline to each postbaseline study visit (Weeks 2 through 12) in the TMC based on site assessments • Changes from the screening period baseline to maintenance (the average of the Week 10 and Week 12 assessments) in the TMC based on video recording central rater assessments • CGI-C response at Weeks 2 through 10 • PGI-C response at Weeks 2 through 10 • The change from baseline to Weeks 4, 8, and 10 in the Neuro-QoL Upper Extremity Function T-score. • The change from baseline to Weeks 4, 8, and 10 in the Neuro-QoL Lower Extremity Function T-score • CGI-S at Weeks 2 through 12 • PGI-S at Weeks 2 through 12 • SF-36 at Week 12 • HD-HI at Week 10 and Week 12 • EQ-5D-5L at Week 10 and Week 12 • UHDRS scores for motor, behavior, and functional capacity assessment at Weeks 2 through 12 • Other UHDRS scores including functional assessment and independence scale at Week 12 • AS at Week 12 • Change from screening period in physical activity by movement sensors at the Week 10 visit period"}, "subjects with HD [3]": {"test_system": "subjects with HD", "assay": "Phase 3 study: Neuro-QoL Lower Extremity Function T-score", "from_the_text": "As used herein, “Neuro-QoL” is a set of self-report measures that assesses the health-related quality of life (HRQOL) of adults and children with neurological disorders. Neuro-QoL Upper Extremity Function scale measures one's ability across fine motor and activities of daily living involving digital, manual and reach-related function and self-care. Neuro-QoL Lower Extremity Function scale measures one's ability to carry out various activities involving the trunk region and increasing degrees of bodily movement, ambulation, balance or endurance. See, National Institute of Neurological Disorders and Stroke (NINDS). User Manual for the Quality of Life in Neurological Disorders (Neuro-QoL) Measures, Version 2.0, March 2015, which is incorporated herein by reference in its entirety.\nas §1, with “drug. […]” for “drug.”"}}, "data": [{"smiles": "COc1cc2c(cc1OC)[C@H]1C[C@@H](OC(=O)[C@@H](N)C(C)C)[C@H](CC(C)C)CN1CC2", "note": "[Valbenazine, (S)-2-amino-3-methyl-butyric acid (2R,3R,11bR)-3-isobutyl-9,10-dimethoxy-1,3,4,6,7,11b-hexahydro-2H-pyrido[2,1-a]isoquinolin-2-yl ester]", "values": [{"measurement": "TMS score LS mean difference, change from screening period baseline to maintenance", "setting": "subjects with HD [1]", "value": "groups: LS mean difference −3.99 (95% CI: −6.27, −1.70); p = 0.0008"}, {"measurement": "PGI-C response rate difference between treatment groups (valbenazine minus placebo)", "setting": "subjects with HD [2]; Week 2", "value": "through 10 as follows: Week 2 (18.52% [95% CI: 5.48, 31.41],"}, {"measurement": "PGI-C response rate difference between treatment groups (valbenazine minus placebo)", "setting": "subjects with HD [2]; Week 4", "value": "nominal p = 0.0042), Week 4 (18.57% [95% CI: 3.79, 32.70], nominal"}, {"measurement": "PGI-C response rate difference between treatment groups (valbenazine minus placebo)", "setting": "subjects with HD [2]; Week 6", "value": "p = 0.0120), Week 6 (23.08% [95% CI: 5.60, 39.04], nominal"}, {"measurement": "PGI-C response rate difference between treatment groups (valbenazine minus placebo)", "setting": "subjects with HD [2]; Week 8", "value": "p = 0.0064), Week 8 (26.44% [95% CI: 7.70, 42.49], nominal"}, {"measurement": "PGI-C response rate difference between treatment groups (valbenazine minus placebo)", "setting": "subjects with HD [2]; Week 10", "value": "p = 0.0037), and Week 10 (16.94% [95% CI: −1.37, 34.63], nominal"}, {"measurement": "PGI-C @ week 12, % responders", "setting": "subjects with HD [2]; Week 12, valbenazine group", "value": 52.7, "unit": "%"}, {"measurement": "PGI-C @ week 12, % responders, Difference", "setting": "subjects with HD [2]; Week 12, valbenazine vs placebo", "value": 26.3, "unit": "%"}, {"measurement": "Neuro-QoL Lower Extremity Function T Score CFB @ week 12, LS Mean", "setting": "subjects with HD [3]; valbenazine group", "value": "−0.27"}, {"measurement": "Neuro-QoL Lower Extremity Function T Score CFB @ week 12, LS Mean, Difference", "setting": "subjects with HD [3]; valbenazine vs placebo", "value": "−0.88"}]}]}
